Measurements taken from patent publication US9732077B2, “Diazepane orexin receptor antagonists” (MERCK SHARP & DOHME CORP., priority 2013, dated 2017).

Legend:
human orexin-2 receptor = target: T1, human orexin-2 receptor (Homo sapiens, UniProt O43614); test: OX2R FLIPR Ca flux assay (CHO cells); type: cell-based; settings: for IC50: CHO cells expressing human orexin-2 receptor, agonist 70 pM Ala-6,12 orexin-A; for Fold Selectivity OX2R vs. OX1R: ratio of OX1R FLIPR to OX2R FLIPR
T1 construct: expressed in transfected cells; host or cells: CHO cells (G418 selection)
T1 sequence (O43614 1-444): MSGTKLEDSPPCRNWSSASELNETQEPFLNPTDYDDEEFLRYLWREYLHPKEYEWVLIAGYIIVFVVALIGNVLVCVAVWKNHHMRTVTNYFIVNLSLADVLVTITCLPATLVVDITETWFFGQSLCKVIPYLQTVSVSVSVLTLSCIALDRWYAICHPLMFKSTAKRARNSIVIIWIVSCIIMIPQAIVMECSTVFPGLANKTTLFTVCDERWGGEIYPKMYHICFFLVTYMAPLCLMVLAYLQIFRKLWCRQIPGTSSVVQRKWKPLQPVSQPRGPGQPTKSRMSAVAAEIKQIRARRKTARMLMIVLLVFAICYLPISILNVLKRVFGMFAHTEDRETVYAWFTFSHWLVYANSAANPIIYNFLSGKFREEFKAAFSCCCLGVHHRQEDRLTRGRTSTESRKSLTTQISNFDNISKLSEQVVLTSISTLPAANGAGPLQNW
Protocol: (§1) The utility of the compounds in accordance with the present invention as orexin receptor OX1R and/or OX2R antagonists may be readily determined without undue experimentation by methodology well known in the art, including the “FLIPR Ca^+ Flux Assay” (Okumura et al., Biochem. Biophys. Res. Comm. 280:976-981, 2001). In a typical experiment the OX1 and OX2 receptor antagonistic activity of the compounds of the present invention was determined in accordance with the following experimental method. For intracellular calcium measurements, Chinese hamster ovary (CHO) cells expressing the rat orexin-1 receptor or the human orexin-2 receptor, are grown in Iscove's modified DMEM containing 2 mM L-glutamine, […], 1% hypoxanthine-thymidine supplement, 100 U/ml penicillin, 100 μg/ml streptomycin and 10% heat-inactivated fetal calf serum (FCS). The cells are seeded at 20,000 cells/well into Becton-Dickinson black 384-well clear bottom sterile plates coated with poly-D-lysine. All reagents were from GIBCO-Invitrogen Corp. The seeded plates are incubated overnight at 37° C. and 5% CO2. Ala-6,12 human orexin-A as the agonist is prepared as a 1 mM stock solution in 1% bovine serum albumin (BSA) and diluted in assay buffer (HBSS containing 20 mM HEPES, 0.1% BSA and 2.5 mM probenecid, pH7.4) for use in the assay at a final concentration of 70 pM. Test compounds are prepared as 10 mM stock solution in DMSO, then diluted in 384-well plates, first in DMSO, then assay buffer. On the day of the assay, cells are washed 3 times with 100 μl assay buffer and then incubated for 60 min (37° C., 5% CO2) in 60 μl assay buffer containing 1 μM Fluo-4AM ester, 0.02% pluronic acid, and 1% BSA. The dye loading solution is then aspirated and cells are washed 3 times with 100 μl assay buffer. 30 μl of that same buffer is left in each well. Within the Fluorescent Imaging Plate Reader (FLIPR, Molecular Devices), test compounds are added to the plate in a volume of 25 μl, incubated for 5 min and finally 25 μl of agonist is added. Fluorescence is measured for each well at 1 second intervals for 5 minutes and the height of each fluorescence peak is compared to the height of the fluorescence peak induced by 70 pM Ala-6,12 orexin-A with buffer in place of antagonist. For each antagonist, IC50 value (the concentration of compound needed to inhibit 50% of the agonist response) is determined. Alternatively, compound potency can be assessed by a radioligand binding assay (described in Bergman et. al. Bioorg. Med. Chem. Lett. 2008, 18, 1425-1430) in which the inhibition constant (Ki) is determined in membranes prepared from CHO cells expressing either the OX1 or OX2 receptor. The intrinsic orexin receptor antagonist activity of a compound which may be used in the present invention may be determined by these assays.

rat orexin-1 receptor = target: T2, rat orexin-1 receptor (Rattus norvegicus, UniProt P56718); test: OX1R FLIPR Ca flux assay (CHO cells); type: cell-based; settings: CHO cells expressing rat orexin-1 receptor; agonist 70 pM Ala-6,12 orexin-A
T2 construct: expressed in transfected cells; host or cells: CHO cells (G418 selection)
T2 sequence (P56718 1-416): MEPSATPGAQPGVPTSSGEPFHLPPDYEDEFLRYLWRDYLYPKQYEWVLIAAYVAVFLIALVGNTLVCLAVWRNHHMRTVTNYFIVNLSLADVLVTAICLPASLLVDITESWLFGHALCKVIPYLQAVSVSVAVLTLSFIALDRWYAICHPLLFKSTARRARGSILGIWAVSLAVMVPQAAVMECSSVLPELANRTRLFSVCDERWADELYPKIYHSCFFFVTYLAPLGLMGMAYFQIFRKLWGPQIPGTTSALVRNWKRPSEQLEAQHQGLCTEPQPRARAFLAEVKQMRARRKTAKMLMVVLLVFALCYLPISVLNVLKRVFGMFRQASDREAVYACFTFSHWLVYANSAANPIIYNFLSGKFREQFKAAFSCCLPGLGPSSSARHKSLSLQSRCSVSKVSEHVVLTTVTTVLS
Protocol: as §1

IC50 (human orexin-2 receptor) [nM]	Fold Selectivity OX2R vs. OX1R (human orexin-2 receptor) [fold]	IC50 (rat orexin-1 receptor) [nM]	SMILES	selectivity between orexin-2 receptor and orexin-1 receptor (in words) (human orexin-2 receptor; comparison with diazepane compounds of WO 2007/126935, whole cell FLIPR functional assay)
34	231	7890	CCOc1ncccc1C(=O)N1CCCN(c2nc(C(C)(C)O)c(C)o2)CC1 [Example 21, 2-(2-{4-[(2-ethoxypyridin-3-yl)carbonyl]-1,4-diazepan-1-yl}-5-methyl-1,3-oxazol-4-yl)propan-2-ol]	–
27	47	1270	Cc1oc(N2CCCN(C(=O)c3ccccc3-n3nccn3)CC2)nc1C(C)(C)O [Example 13, 2-[5-methyl-2-(4-{[2-(2H-1,2,3-triazol-2-yl)phenyl]carbonyl}-1,4-diazepan-1-yl)-1,3-oxazol-4-yl]propan-2-ol]	–
20	145	2900	Cc1oc(N2CCCN(C(=O)c3ccc(F)cc3-n3nccn3)CC2)nc1C(C)(C)O [Example 18, 2-[2-(4-{[4-fluoro-2-(2H-1,2,3-triazol-2-yl)phenyl]carbonyl}-1,4-diazepan-1-yl)-5-methyl-1,3-oxazol-4-yl]propan-2-ol]	–
41	>244	> 10000	Cc1oc(N2CCCN(C(=O)c3cccnc3OC(C)C)CC2)nc1C(C)(C)O [Example 14, 2-[5-methyl-2-(4-{[2-(1-methylethoxy)pyridin-3-yl]carbonyl}-1,4-diazepan-1-yl)-1,3-oxazol-4-yl]propan-2-ol]	–
21	137	2880	Cc1oc(N2CCCN(C(=O)c3ccccc3OC(F)(F)F)CC2)nc1C(C)(C)O [Example 15, 2-[5-methyl-2-(4-{[2-(trifluoromethoxy)phenyl]carbonyl}-1,4-diazepan-1-yl)-1,3-oxazol-4-yl]propan-2-ol]	–
90	>111	> 10000	CC(C)(O)c1csc(N2CCCN(C(=O)c3cccnc3OCC(F)F)CC2)n1 [Example 22, (2-(2,2-difluoroethoxy)pyridin-3-yl)(4-(4-(2-hydroxypropan-2-yl)thiazol-2-yl)-1,4-diazepan-1-yl)methanone]	–
216	>46	> 10000	CC(C)(O)c1csc(N2CCCN(C(=O)c3ccccc3OC(F)(F)F)CC2)n1 [Example 24, (4-(4-(2-hydroxypropan-2-yl)thiazol-2-yl)-1,4-diazepan-1-yl)(2-(trifluoromethoxy)phenyl)meth-anone]	–
35	179	6290	Cc1oc(N2CCCN(C(=O)c3ccccc3-n3cccn3)CC2)nc1C(C)(C)O [Example 20, 2-[5-methyl-2-(4-{[2-(1H-pyrazol-1-yl)phenyl]carbonyl}-1,4-diazepan-1-yl)-1,3-oxazol-4-yl]propan-2-ol]	–
26	142	3690	Cc1oc(N2CCCN(C(=O)c3cccnc3OCC(F)F)CC2)nc1C(C)(C)O [Example 16, 2-[2-(4-{[2-(2,2-difluoroethoxy)pyridin-3-yl]carbonyl}-1,4-diazepan-1-yl)-5-methyl-1,3-oxazol-4-yl]propan-2-ol]	–
12	332	3990	Cc1oc(N2CCCN(C(=O)c3ccccc3OC(F)F)CC2)nc1C(C)(C)O [Example 12, (2-(difluoromethoxy)phenyl)(4-(4-(2-hydroxypropan-2-yl)-5-methyloxazol-2-yl)-1,4-diazepan-1-yl)methanone]	–
57	>175	> 10000	CC(C)(O)c1csc(N2CCCN(C(=O)c3cccnc3OCC(F)(F)F)CC2)n1 [Example 23, (4-(4-(2-hydroxypropan-2-yl)thiazol-2-yl)-1,4-diazepan-1-yl)(2-(2,2,2-trifluoroethoxy)pyridin-3-yl)methanone]	–

The remaining lines, values behind:

SMILES	IC50 (human orexin-2 receptor) [nM]	Fold Selectivity OX2R vs. OX1R (human orexin-2 receptor) [fold]	IC50 (rat orexin-1 receptor) [nM]	selectivity between orexin-2 receptor and orexin-1 receptor (in words) (human orexin-2 receptor; comparison with diazepane compounds of WO 2007/126935, whole cell FLIPR functional assay)
Cc1cc(C)nc(N2CCCN(C(=O)c3cccnc3OCC(F)(F)F)CC2)n1 [Example 1, (4-(4,6-dimethylpyrimidin-2-yl)-1,4-diazepan-1-yl)(2-(2,2,2-trifluoroethoxy)pyridin-3-yl)methanone]	18	343	6170	–
Cc1cc(C)nc(N2CCCN(C(=O)c3cccnc3OC(C)C)CC2)n1 [Example 4, 1-(4,6-dimethylpyrimidin-2-yl)-4-{[2-(1-methylethoxy)pyridin-3-yl]carbonyl}-1,4-diazepane]	106	>94	> 10000	–
Cc1cc(C)nc(N2CCCN(C(=O)c3ccccc3-n3cccn3)CC2)n1 [Example 8, 1-(4,6-dimethylpyrimidin-2-yl)-4-{[2-(1H-pyrazol-1-yl)phenyl]carbonyl}-1,4-diazepane]	88	>113	> 10000	–
Cc1cc(C)nc(N2CCCN(C(=O)c3cccnc3-c3ccccc3)CC2)n1 [Example 11, 1-(4,6-dimethylpyrimidin-2-yl)-4-[(2-phenylpyridin-3-yl)carbonyl]-1,4-diazepane]	166	>60	> 10000	–
Cc1cc(C)nc(N2CCCN(C(=O)c3ccccc3OC(F)F)CC2)n1 [Example 5, 1-{[2-(difluoromethoxy)phenyl]carbon-yl}-4-(4,6-dimethylpyrimidin-2-yl)-1,4-diazepane]	76	>131	> 10000	–
Cc1cc(C)nc(N2CCCN(C(=O)c3ccccc3-n3nccn3)CC2)n1 [Example 2, (2-(2H-1,2,3-triazol-2-yl)phenyl)(4-(4,6-dimethylpyrimidin-2-yl)-1,4-diazepan-1-yl)methanone]	28	96	2700	–
Cc1cc(C)nc(N2CCCN(C(=O)c3ccc(F)cc3-n3nccn3)CC2)n1 [Example 3, 1-(4,6-dimethylpyrimidin-2-yl)-4-{[4-fluoro-2-(2H-1,2,3-triazol-2-yl)phenyl]carbonyl}-1,4-diazepane]	35	142	4980	–
Cc1cc(C)nc(N2CCCN(C(=O)c3ccccc3C3CC3)CC2)n1 [Example 9, 1-[(2-cyclopropylphenyl)-carbonyl]-4-(4,6-dimethylpyrimidin-2-yl)-1,4-diazepane]	17	106	1810	–
Cc1ccc(-n2nccn2)c(C(=O)N2CCCN(c3nc4ccccc4o3)CC2)c1 [Example B-3, reference compound]	–	–	–	greater selectivity for the orexin-1 receptor than for the orexin-2 receptor
